Measurements published in patent US20060069132A1, “Azolecarboxamide herbicides” (priority 2004, published 2006).

Experiments:
[1] = tested on: large crabgrass; test: Test B pre-/postemergence herbicide test; assay type: in vivo, Digitaria sanguinalis; conditions: for Crabgrass, Large plant response rating: scale 0 (no effect) to 100 (complete control)
Method in brief: (§1)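 Visual rating, 0 (no effect) to 100 (complete control), versus untreated controls after 13–15 d in greenhouse. Pre- and postemergence applications (postemergence plants 2–18 cm, 1–4 leaves); flooded paddy arm at 2-leaf stage. Compounds in non-phytotoxic solvent plus surfactant.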

[2] = tested on: giant foxtail; test: Test B pre-/postemergence herbicide test; assay type: in vivo, Setaria faberi; conditions: for Foxtail, Giant plant response rating: scale 0 (no effect) to 100 (complete control)
Method in brief: as §1

[3] = tested on: rice; test: Test B flooded paddy test; assay type: in vivo, Oryza sativa; conditions: 1000 g ai/ha, scale 0 to 100 (0 no effect, 100 complete control)
Method in brief: (§2)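 Read-out: visual comparison with controls, scored 0 to 100, where 100 means complete control and 0 no effect. Formulated chemicals were applied postemergence to plants 2–18 cm tall (1- to 4-leaf), or to flooded-paddy plants at the 2-leaf stage, then held 13 to 15 days under glass.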

[4] = tested on: pigweed; test: Test B pre-/postemergence herbicide test; assay type: in vivo, Amaranthus retroflexus; conditions: for Pigweed plant response rating: scale 0 (no effect) to 100 (complete control)
Method in brief: as §1

[5] = tested on: Surinam grass; test: Test B pre-/postemergence herbicide test; assay type: in vivo, Urochloa decumbens; conditions: for Surinam Grass plant response rating: scale 0 (no effect) to 100 (complete control)
Method in brief: as §1

[6] = tested on: wild oat; test: Test B postemergence herbicide test; assay type: in vivo, Avena fatua; conditions: scale 0 (no effect) to 100 (complete control)
Method in brief: as §2

[7] = tested on: wheat; test: Test B postemergence herbicide test; assay type: in vivo, Triticum aestivum; set-up: key to Wheat plant response rating: 0 = no effect, 100 = complete control
Method in brief: as §2

[8] = tested on: velvetleaf; test: Test B pre-/postemergence herbicide test; assay type: in vivo, Abutilon theophrasti; conditions: for Velvetleaf plant response rating: scale 0 (no effect) to 100 (complete control)
Method in brief: as §1

[9] = tested on: barnyardgrass; test: Test B flooded paddy test; assay type: in vivo, Echinochloa crus-galli; conditions: 1000 g ai/ha, scale 0 to 100 (0 no effect, 100 complete control)
Method in brief: (§3)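 Paddy species grown to the 2-leaf stage under flooding; blackgrass sprayed postemergence at 2–18 cm (1- to 4-leaf stage). Plants kept in a greenhouse for 13 to 15 days, then visually rated against controls on 0 (no effect) to 100 (complete control).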

[10] = tested on: blackgrass; test: Test B postemergence herbicide test; assay type: in vivo, Alopecurus myosuroides; conditions: scale 0 (no effect) to 100 (complete control)
Method in brief: as §3

[11] = tested on: morningglory; test: Test B pre-/postemergence herbicide test; assay type: in vivo, Ipomoea coccinea; conditions: for Morningglory plant response rating: scale 0 (no effect) to 100 (complete control)
Method in brief: (§4)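 Test chemicals in a non-phytotoxic solvent mixture with surfactant were applied preemergence to seeded species and postemergence to plants 2-18 cm tall (1- to 4-leaf stage); rice and barnyardgrass were also tested in a flooded paddy at the 2-leaf stage. Visual rating versus controls after 13-15 days in greenhouse, scale 0 (no effect) to 100 (complete control).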

[12] = tested on: ducksalad; test: Test B flooded paddy test; assay type: in vivo, Heteranthera limosa; conditions: 1000 g ai/ha, scale 0 to 100 (0 no effect, 100 complete control)
Method in brief: as §3

[13] = tested on: barnyardgrass; test: Test B pre-/postemergence herbicide test; assay type: in vivo, Echinochloa crus-galli; conditions: for Barnyardgrass plant response rating: scale 0 (no effect) to 100 (complete control)
Method in brief: as §4

[14] = tested on: small flower umbrella sedge; test: Test B flooded paddy test; assay type: in vivo, Cyperus difformis; conditions: 1000 g ai/ha, scale 0 to 100 (0 no effect, 100 complete control)
Method in brief: as §3

[15] = tested on: corn; test: Test B pre-/postemergence herbicide test; assay type: in vivo, Zea mays; conditions: for Corn plant response rating: scale 0 (no effect) to 100 (complete control)
Method in brief: as §1

[16] = 125 g ai/ha, 0 is no effect, 100 is complete control, preemergence
[17] = 125 g ai/ha, visual rating, postemergence
[18] = 125 g ai/ha, 0 = no effect, 100 = complete control, preemergence
[19] = 500 g ai/ha, visual rating, 0 = no effect, 100 = complete control, preemergence
[20] = postemergence, 125 g ai/ha, visual rating
[21] = postemergence, 500 g ai/ha, visual rating
[22] = postemergence, 500 g ai/ha, visual rating, scale 0 (no effect) to 100 (complete control)
[23] = 500 g ai/ha, visual rating 0-100, 0 no effect, 100 complete control, preemergence
[24] = preemergence, 125 g ai/ha, 0 to 100 scale, 0 is no effect, 100 is complete control

Cc1nn(C(C)(C)C)nc1C(=O)Nc1cccc(C(=O)N(C)C)c1 [Compound 391]
10: Crabgrass, Large plant response rating [1, 17] | Surinam Grass plant response rating [5, 17] | Wheat plant response rating ([7]; Postemergence, 500 g ai/ha, scale 0 (no effect) to 100 (complete control)) | Barnyardgrass plant response rating [13, 17] | Corn plant response rating [15, 17]
80: Plant response rating (0 to 100 scale), Velvetleaf [8, 16] | Sedge, Umbrella plant response rating [14]
60: Velvetleaf plant response rating ([8]; Postemergence, 500 g ai/ha)
90: Plant response rating (0 to 100 scale), Foxtail, Giant [2, 16] | Rice plant response rating [3] | Barnyardgrass plant response rating [9] | Plant response rating (0 to 100 scale), Morningglory [11, 16] | Ducksalad plant response rating [12] | Plant response rating (0 to 100 scale), Corn [15, 16]
30: Crabgrass, Large plant response rating ([1]; Postemergence, 500 g ai/ha) | Foxtail, Giant plant response rating ([2]; Postemergence, 500 g ai/ha) | Surinam Grass plant response rating ([5]; Postemergence, 500 g ai/ha) | Blackgrass plant response rating [10, 17] | Morningglory plant response rating [11, 17] | Barnyardgrass plant response rating ([13]; Postemergence, 500 g ai/ha) | Corn plant response rating ([15]; Postemergence, 500 g ai/ha)
0: Oat, Wild plant response rating [6, 17] | Wheat plant response rating ([7]; 125 g ai/ha, visual rating, scale 0 (no effect) to 100 (complete control), postemergence)
20: Foxtail, Giant plant response rating [2, 17] | Oat, Wild plant response rating ([6]; Postemergence, 500 g ai/ha)
100: Plant response rating (0 to 100 scale), Crabgrass, Large [1, 16] | Plant response rating (0 to 100 scale), Pigweed [4, 16] | Plant response rating (0 to 100 scale), Surinam Grass [5, 16] | Wheat plant response rating ([7]; 500 g ai/ha, scale 0 to 100, 0 no effect, 100 complete control, preemergence) | Plant response rating (0 to 100 scale), Barnyardgrass [13, 16]
40: Velvetleaf plant response rating [8, 17]
70: Pigweed plant response rating ([4]; Postemergence, 500 g ai/ha) | Blackgrass plant response rating ([10]; Postemergence, 500 g ai/ha) | Morningglory plant response rating ([11]; Postemergence, 500 g ai/ha)
50: Pigweed plant response rating [4, 17]

CCc1nc(C(C)(C)C)sc1C(=O)Nc1cccc(C(=O)NCC2CC2)n1 [Compound 215]
90: Ducksalad plant response rating ([12]; visual rating, 13 to 15 days) | Sedge, Umbrella plant response rating ([14]; visual rating, 13 to 15 days)
10: Surinam Grass plant response rating [5, 21] | Oat, Wild plant response rating [6, 20] | Morningglory plant response rating (0 to 100 scale) [11, 18] | Barnyardgrass plant response rating (0 to 100 scale) [13, 18] | Corn plant response rating [15, 21]
80: Plant response rating, Crabgrass, Large [1, 19] | Plant response rating, Foxtail, Giant [2, 19] | Pigweed plant response rating (0 to 100 scale) [4, 18]
30: Rice plant response rating ([3]; visual rating, 13 to 15 days) | Barnyardgrass plant response rating ([9]; visual rating, 13 to 15 days)
60: Plant response rating, Velvetleaf [8, 19] | Velvetleaf plant response rating [8, 21] | Plant response rating, Barnyardgrass [13, 19]
0: Crabgrass, Large plant response rating (0 to 100 scale) [1, 18] | Crabgrass, Large plant response rating [1, 20] | Crabgrass, Large plant response rating [1, 21] | Foxtail, Giant plant response rating (0 to 100 scale) [2, 18] | Foxtail, Giant plant response rating [2, 20] | Surinam Grass plant response rating (0 to 100 scale) [5, 18] | Surinam Grass plant response rating [5, 20] | Wheat plant response rating ([7]; postemergence, 125 g ai/ha, visual rating, scale 0 (no effect) to 100 (complete control)) | Velvetleaf plant response rating (0 to 100 scale) [8, 18] | Blackgrass plant response rating [10, 20] | Blackgrass plant response rating [10, 21] | Morningglory plant response rating [11, 20] | Barnyardgrass plant response rating [13, 20] | Corn plant response rating (0 to 100 scale) [15, 18] | Plant response rating, Corn [15, 19] | Corn plant response rating [15, 20]
40: Velvetleaf plant response rating [8, 20] | Morningglory plant response rating [11, 21]
100: Plant response rating, Pigweed [4, 19]
20: Foxtail, Giant plant response rating [2, 21] | Pigweed plant response rating [4, 20] | Oat, Wild plant response rating [6, 21] | Wheat plant response rating [7, 22] | Plant response rating, Morningglory [11, 19] | Barnyardgrass plant response rating [13, 21]
70: Pigweed plant response rating [4, 21] | Plant response rating, Surinam Grass [5, 19]

CCn1nc(C(C)(C)C)cc1C(=O)Nc1cc(C#N)ccc1F [Compound 140]
80: Plant response rating, Foxtail, Giant [2, 23] | Plant response rating, Pigweed [4, 23] | Ducksalad plant response rating ([12]; visual rating, 13 to 15 days) | Plant response rating, Barnyardgrass [13, 23] | Sedge, Umbrella plant response rating ([14]; visual rating, 13 to 15 days)
0: Crabgrass, Large plant response rating [1, 20] | Crabgrass, Large plant response rating [1, 21] | Plant response rating, Crabgrass, Large [1, 24] | Foxtail, Giant plant response rating [2, 20] | Foxtail, Giant plant response rating [2, 21] | Plant response rating, Foxtail, Giant [2, 24] | Pigweed plant response rating [4, 20] | Pigweed plant response rating [4, 21] | Plant response rating, Pigweed [4, 24] | Surinam Grass plant response rating [5, 20] | Surinam Grass plant response rating [5, 21] | Plant response rating, Surinam Grass [5, 24] | Oat, Wild plant response rating [6, 20] | Oat, Wild plant response rating [6, 21] | Wheat plant response rating [7, 22] | Velvetleaf plant response rating [8, 20] | Velvetleaf plant response rating [8, 21] | Plant response rating, Velvetleaf [8, 24] | Blackgrass plant response rating [10, 20] | Blackgrass plant response rating [10, 21] | Morningglory plant response rating [11, 20] | Morningglory plant response rating [11, 21] | Barnyardgrass plant response rating [13, 20] | Barnyardgrass plant response rating [13, 21] | Plant response rating, Corn [15, 23] | Corn plant response rating [15, 20] | Plant response rating, Corn [15, 24]
30: Rice plant response rating ([3]; visual rating, 13 to 15 days)
60: Plant response rating, Surinam Grass [5, 23]
20: Plant response rating, Velvetleaf [8, 23] | Plant response rating, Barnyardgrass [13, 24]
100: Plant response rating, Crabgrass, Large [1, 23]
70: Barnyardgrass plant response rating ([9]; visual rating, 13 to 15 days)
10: Corn plant response rating [15, 21]

CCNC(=O)c1cc(C)nc(NC(=O)c2cc(C(C)(C)C)nn2CC)c1 [Compound 149]
50: Rice plant response rating ([3]; visual rating, 13 to 15 days) | Pigweed plant response rating [4, 20] | Velvetleaf plant response rating [8, 21] | Plant response rating, Corn [15, 23]
60: Plant response rating, Foxtail, Giant [2, 24] | Sedge, Umbrella plant response rating ([14]; visual rating, 13 to 15 days)
10: Crabgrass, Large plant response rating [1, 20] | Foxtail, Giant plant response rating [2, 20] | Foxtail, Giant plant response rating [2, 21] | Surinam Grass plant response rating [5, 20] | Oat, Wild plant response rating [6, 20] | Wheat plant response rating [7, 22] | Velvetleaf plant response rating [8, 20] | Blackgrass plant response rating [10, 20] | Corn plant response rating [15, 20] | Plant response rating, Corn [15, 24]
80: Plant response rating, Surinam Grass [5, 23] | Plant response rating, Barnyardgrass [13, 24]
20: Surinam Grass plant response rating [5, 21] | Morningglory plant response rating [11, 20] | Plant response rating, Morningglory [11, 24]
70: Pigweed plant response rating [4, 21] | Barnyardgrass plant response rating ([9]; visual rating, 13 to 15 days)
40: Plant response rating, Surinam Grass [5, 24] | Plant response rating, Velvetleaf [8, 23] | Blackgrass plant response rating [10, 21] | Plant response rating, Morningglory [11, 23] | Morningglory plant response rating [11, 21]
30: Crabgrass, Large plant response rating [1, 21] | Oat, Wild plant response rating [6, 21] | Barnyardgrass plant response rating [13, 21] | Corn plant response rating [15, 21]
90: Plant response rating, Crabgrass, Large [1, 24] | Ducksalad plant response rating ([12]; visual rating, 13 to 15 days) | Plant response rating, Barnyardgrass [13, 23]
100: Plant response rating, Crabgrass, Large [1, 23] | Plant response rating, Foxtail, Giant [2, 23] | Plant response rating, Pigweed [4, 23] | Plant response rating, Pigweed [4, 24]
0: Plant response rating, Velvetleaf [8, 24] | Barnyardgrass plant response rating [13, 20]
